Data as given in patent US12384775B2, “Pyrimid-2-yl-pyrazole compounds as IRAK inhibitors” (Rigel Pharmaceuticals, Inc., priority 2022, dated 2025).

Assays:
Assay type in all cases: cell-based
[1] = test system: TLR7-Induced TNF-α in Human Peripheral Blood Mononuclear Cells (PBMC); test: TLR7-induced TNF-α in human PBMC (resiquimod); conditions: resiquimod 0.1 μg/ml, read-out: Cell Assays IC50, TNFα (PBMC, resiquimod)
Description: Human peripheral blood mononuclear cells (PBMC) were seeded at 100,000 cells per well in 100 μL of RPMI with 10% FCS and primed overnight with 8 ng/ml of IFN-β at 37° C., 5% CO2. Compound was serially diluted in DMSO from 2 mM in 3-fold dilutions, and then diluted 1:100 in RPMI 1640 complete media with 10% FBS (2× stock). The PBMCs were pre-incubated with test compound for 1 hour at 37° C., 5% CO2 by adding 100 μL of RPMI media containing 2× concentrated test compound per well (0.5% final DMSO concentration).
The PBMCs were stimulated with resiquimod (10 μL per well of 21× concentrated resiquimod solution in RPMI media to give a final concentration of 0.1 μg/ml) at 37° C., 5% CO2 for an additional 18 hours. 100 μL of supernatant per well was harvested to measure TNF-α. TNF-α was quantitated using DuoSet ELISA Kit per manufacturer's protocol.

[2] = test system: TLR7-induced TNF-α production in human primary dendritic cells (DC); test: Gardiquimod-induced TNF-α in human monocyte-derived dendritic cells (DC); conditions: Dendritic cell, gardiquimod 4 μg/ml, read-out: Cell Assays IC50, TNFα (DC, Gard)
Description: Human peripheral blood mononuclear cells (PBMC) (400 million) were allowed to adhere in a T-175 flask containing 15 ml RPMI media (10% FBS) for 2 hours at 37° C., 5% CO2 to capture the monocytes.
After 2 hours, the media including floating cells was carefully removed and 12 ml of fresh RPMI media (10% FBS) containing GM-CSF (100 ng/ml) and IL-4 (20 ng/ml) were added to the adherent monocytes. The monocytes were allowed to differentiate for 7 days at 37° C., 5% CO2 for 7 days, supplementing with fresh GM-CSF and IL-4 after 3 days.
The differentiated dendritic cells (DC) were harvested by centrifugation (1200 rpm/5 min). The DCs were primed at 37° C., 5% CO2 for 24 hours with 50 ng/ml IFN-7 (1000 U/ml) at 50K/well in 100 μL/well of fresh RPMI media (10% FBS) in a white clear bottom 96 well plate.
Compound was serially diluted in DMSO from 2.5 mM in 4-fold dilutions, and then diluted 1:125 in RPMI 1640 complete media with 10% FBS. The primed DCs were pre-incubated with test compound for 1 hour at 37° C., 5% CO2 by adding 100 μl of RPMI media containing 2× concentrated test compound per well (0.5% final DMSO concentration).
The DCs were stimulated with gardiquimod (10 μL per well of 20× concentrated gardiquimod solution in RPMI media to give a final concentration of 4 μg/ml) at 37° C., 5% CO2 for an additional 18 hours. […] TNF-α was quantitated by ELISA, following the kit protocol.

[3] = test system: TLR- and IL-1R-dependent cytokine production; test: Cell assays, average of IL-23 (THP-1), TNFα (PBMC), TNFα (DC); conditions: Homo sapiens, average of the three cell assays
From the text: To evaluate the effect of compound I-1 on TLR and IL-1R-dependent cytokine release, multiple cell types were isolated and stimulated in the presence of compound I-1 or Comparison-1.

[4] = test system: Gardiquimod-Induced IL-6 in Human Blood; test: Gardiquimod-induced IL-6 in human whole blood; conditions: Gardiquimod 4 μg/ml overnight, read-out: Human Whole Blood Assays (IC5050), IL-6 Gard
Description: To assess the effect of whole blood on the potency of compound I-1 and Comparison-1, the compounds were evaluated for their inhibitory potential on TLR dependent cytokine release in human blood. Freshly drawn peripheral blood from healthy volunteers was incubated with test compound and stimulated overnight with LPS or Gardiquimod. The serum was isolated after centrifugation and TNF-α and IL-6 were measured by ELISA.
Whole blood of healthy volunteers was collected in Vacutainer containing Sodium Heparin and 40 μL of blood was plated to each well. Compound was serially diluted in DMSO from 2 mM in 3-fold dilutions, and then diluted 1:100 in media with 10% FBS. 50 μL of 2× compound per well in duplicate was added to each well and incubated for one hour. 10 μL Gardiquimod was added to each well at a final concentration of 4 μg/ml and cells were incubated overnight.
100 μL of PBS was added to each well and centrifuged for 10 minutes at 1000 RPM 25 μL of supernatant were taken, and IL-6 was measured by Luminex Flexmap 3d.

Row | Compound | IC50 [1] | IC50 [2] | IC50 [3] | IC50 [4]
1 | CCO[C@H]1CC[C@H](n2cc(NC(=O)c3csc(-c4cn[nH]c4)n3)c(-c3nc(F)ccc3F)n2)CC1 [Comparison-1, reference compound] | 15 nM | 19 nM | 32 nM | 1400 nM
2 | CCO[C@H]1CC[C@H](n2cc(NC(=O)c3csc(-c4cn[nH]c4)n3)c(-c3ncccn3)n2)CC1 [Compound I-1, N-(1-((1r,4r)-4-ethoxycyclohexyl)-3-(pyrimidin-2-yl)-1H-pyrazol-4-yl)-2-(1H-pyrazol-4-yl)thiazole-4-carboxamide] | 3 nM | 5 nM | 5 nM | 124 nM
